The values that follow come from US10106526B2, “Inhibitors of cyclin-dependent kinase 7 (CDK7)” (SYROS PHARMACEUTICALS, INC., priority 2014, dated 2018).

Structures can show the parent of a compound that is named as a salt.

One experiment has as its target T1, CDK7 (Homo sapiens, UniProt P50613).
T1 construct: purchased Life Technologies (Adapta kinase assay service)
Nature of the experiment: CDK7 kinase activity, Adapta kinase assay (Life Technologies). Type of experiment: biochemical. The note with it: Adapta kinase assay at Life Technologies; 10 μM down to 0.514 nM, 3-fold serial dilutions; read-out: CDK7 Inhibition (IC50). The procedure: Compounds of the invention were assayed for CDK7 activity at Life Technologies™ (Grand Island, N.Y.) using their commercially available Adapta® kinase assay services. Compounds were tested at concentrations ranging from 10 μM down to 0.514 nM in a series of 3-fold serial dilutions. Details of these assays, including substrates used, are available on the Life Technologies web site (http://www.lifetechnologies.com/us/en/home/life-science/drug-discovery/target-and-lead-identification-and-validation/kinasebiology/kinase-activity-assays.html).

Another experiment concerns Jurkat cells. Nature of the experiment: Inhibition of proliferation of Jurkat cells (CellTiter-Glo, 72 hour). The format is cell-based, human. The note with it: 10 μM to 316 pM. The procedure:
Jurkat cells are a cell line established from a human T cell leukemia. Representative compounds of the invention were tested at different concentrations (from 10 μM to 316 pM; 0.5 log serial dilutions) for their ability to inhibit the proliferation of Jurkat cells. Known CDK inhibitors flavopiridol and triptolide were used as positive controls. Cells were grown in RPMI 1640+10% FBS+1% Glutamax. The cells were supplemented with FBS (Life Technologies) and 100 U·mL^− penicillin, 100 μg·mL^− streptomycin (Invitrogen) and cultured at 37° C. in a humidified chamber in the presence of 5% CO2. Proliferation assays were conducted over a 72 hour time period. CellTiter-Glo® (Promega Corporation, Madison, Wis. USA) was used to assess the anti-proliferative effects of the compounds following manufacturer's directions and utilizing the reagents supplied with the CellTiter-Glo® kit. In this table, “A” represents an IC50 of less than 500 nM; “B” an IC50 of between 500 nM and 5 μM; and “C” an IC50 of greater than 5 μM.
A general note: ATP-based viability assays read luminescence as a measure of living cells.

T1 sequence (P50613 whole entry): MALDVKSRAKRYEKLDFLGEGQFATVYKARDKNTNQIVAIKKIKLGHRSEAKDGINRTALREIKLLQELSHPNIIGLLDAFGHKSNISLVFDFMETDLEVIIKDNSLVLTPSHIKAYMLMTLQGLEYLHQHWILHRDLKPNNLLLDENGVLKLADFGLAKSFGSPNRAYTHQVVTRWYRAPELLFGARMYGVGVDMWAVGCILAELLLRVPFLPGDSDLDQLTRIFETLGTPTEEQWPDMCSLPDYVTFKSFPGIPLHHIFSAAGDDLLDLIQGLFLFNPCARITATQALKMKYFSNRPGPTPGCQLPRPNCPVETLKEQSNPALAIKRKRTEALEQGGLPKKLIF
T1 sequence (P51946 whole entry partner): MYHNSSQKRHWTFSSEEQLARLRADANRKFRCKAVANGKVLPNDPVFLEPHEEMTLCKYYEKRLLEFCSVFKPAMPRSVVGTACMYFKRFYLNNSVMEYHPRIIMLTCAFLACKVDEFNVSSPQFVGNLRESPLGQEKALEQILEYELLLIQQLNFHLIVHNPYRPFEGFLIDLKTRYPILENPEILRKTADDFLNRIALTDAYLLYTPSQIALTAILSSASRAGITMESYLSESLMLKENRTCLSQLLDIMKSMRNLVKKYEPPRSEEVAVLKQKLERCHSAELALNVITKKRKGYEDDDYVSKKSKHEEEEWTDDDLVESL
T1 sequence (P51948 whole entry partner): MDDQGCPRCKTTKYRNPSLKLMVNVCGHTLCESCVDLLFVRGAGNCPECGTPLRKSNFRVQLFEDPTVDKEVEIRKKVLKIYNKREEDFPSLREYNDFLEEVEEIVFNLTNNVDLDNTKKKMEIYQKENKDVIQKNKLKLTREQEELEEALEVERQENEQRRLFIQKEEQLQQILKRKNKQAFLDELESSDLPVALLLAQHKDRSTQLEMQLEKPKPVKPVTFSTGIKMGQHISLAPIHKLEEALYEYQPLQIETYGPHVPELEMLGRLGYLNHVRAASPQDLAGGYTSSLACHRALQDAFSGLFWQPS

Take `C=CC(=O)NCCC(=O)N[C@H]1CCC[C@@H](Nc2ncc(Cl)c(-c3c[nH]c4ccccc34)n2)C1` [Compound 172, N-(3-((1S,3R)-3-(5-chloro-4-(1H-indol-3-yl)pyrimidin-2-ylamino)cyclohexylamino)-3-oxopropyl)acrylamide]: the results for the IC50 on CDK7 and in the experiment with Jurkat cells (Homo sapiens) were < 100 nM and < 500 nM, respectively.

On to `CN(C)C/C=C/C(=O)NCCc1cc2ccc(Nc3ncc(Cl)c(-c4c[nH]c5ccccc45)n3)cc2[nH]1` [Compound 175, (E)-N-(2-(6-(5-chloro-4-(1H-indol-3-yl)pyrimidin-2-ylamino)-1H-indol-2-yl)ethyl)-4-(dimethylamino)but-2-enamide], for which the half-maximal inhibitory concentration (IC50) (commonly the concentration that gives 50% inhibition) at CDK7 was < 100 nM; with Jurkat cells (Homo sapiens) it was < 500 nM.

Take `CN(C)C/C=C/C(=O)N1CC[C@@H](Nc2ncc(Cl)c(-c3c[nH]c4ccccc34)n2)C1` [Compound 176]: the IC50 was < 100 nM at CDK7 and 500 to 5000 nM with Jurkat cells.

As to `C=CC(=O)N1CCN(C(=O)N[C@H]2CCC[C@@H](Nc3ncc(Cl)c(-c4c[nH]c5ccccc45)n3)C2)CC1` [Compound 201, 4-Acryloyl-N-((1S,3R)-3-(5-chloro-4-(1H-indol-3-yl)pyrimidin-2-ylamino)cyclohexyl)piperazine-1-carboxamide], the figures for the IC50 at CDK7 and in the experiment with Jurkat cells (Homo sapiens) were < 100 nM and 500 to 5000 nM, respectively.

With `O=C(N[C@H]1CCC[C@@H](Nc2ncc(Cl)c(-c3c[nH]c4ccccc34)n2)C1)C1CCN(C(=O)/C=C/CN2CCOCC2)CC1` [Compound 202-1, N-((1S,3R)-3-((5-chloro-4-(1H-indol-3-yl)pyrimidin-2-yl)amino)cyclohexyl)-1-((E)-4-morpholinobut-2-enoyl)piperidine-4-carboxamide], the IC50 at CDK7 was > 1000 nM; in the experiment with Jurkat cells (Homo sapiens) it was 500 to 5000 nM.

With `O=C(N[C@@H]1CCC[C@H](Nc2ncc(Cl)c(-c3c[nH]c4ccccc34)n2)C1)C1CCN(C(=O)/C=C/CN2CCOCC2)CC1` [Compound 202-2, N-((1R,3S)-3-((5-chloro-4-(1H-indol-3-yl)pyrimidin-2-yl)amino)cyclohexyl)-1-((E)-4-morpholinobut-2-enoyl)piperidine-4-carboxamide], the IC50 at CDK7 was < 100 nM; in the experiment with Jurkat cells (Homo sapiens), < 500 nM.

In the case of `C=CC(=O)N1CCN(C[C@@H]2CCC[C@H](Nc3ncc(Cl)c(-c4c[nH]c5ccccc45)n3)C2)CC1` [Compound 204, 1-(4-(((1R,3S)-3-((5-chloro-4-(1H-indol-3-yl)pyrimidin-2-yl)amino)cyclohexyl)methyl)-piperazin-1-yl)prop-2-en-1-One], the IC50 at CDK7 was < 100 nM; in the experiment on Jurkat cells (Homo sapiens) it was < 500 nM.

As to `C=CC(=O)N1CCC(C(=O)N2CC[C@H](Nc3ncc(Cl)c(-c4c[nH]c5ccccc45)n3)C2)CC1` [Compound 210, (S)-1-(4-(3-((5-chloro-4-(1H-indol-3-yl)pyrimidin-2-yl)amino)pyrrolidine-1-carbonyl)piperidin-1-yl)prop-2-en-1-One], the 50% inhibitory concentration (IC50) at CDK7 was in the range of 100 to 1000 nM; in the experiment with Jurkat cells (Homo sapiens), 500 to 5000 nM.

For the compound `C=CC(=O)N1CCC(O)(CN(C)[C@H]2CCC[C@@H](Nc3ncc(Cl)c(-c4c[nH]c5ccccc45)n3)C2)CC1` [Compound 225], the IC50 on CDK7 is 100 to 1000 nM; with Jurkat cells, > 5000 nM.

Consider `NCCCCC(=O)N1CC[C@@H](Nc2ncc(Cl)c(-c3c[nH]c4ccccc34)n2)C1` [Compound 1000, 5-((R)-3-(5-chloro-4-(1H-indol-3-yl)pyrimidin-2-ylamino)pyrrolidin-1-yl)-5-oxopentan-1-aminium chloride], for which the IC50 was < 100 nM at CDK7 and 500 to 5000 nM in the experiment on Jurkat cells (Homo sapiens).

With `N[C@H]1CC[C@H](C(=O)Nc2cccc(Nc3ncc(Cl)c(-c4c[nH]c5ccccc45)n3)c2)CC1` [Compound 1002, trans-4-amino-N-(3-(5-chloro-4-(1H-indol-3-yl)pyrimidin-2-ylamino)phenyl) cyclohexanecarboxamide.HCl], the IC50 is < 100 nM on CDK7 and 500 to 5000 nM with Jurkat cells (Homo sapiens).
